ChEMBL document CHEMBL1201862, “PubChem BioAssay data set” (2004)
“And” between values parts separate entries of the source, which are not always exact repeats. Equal entries are not always repeated.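 96-well plates; 48 h exposure; 5 concentrations. Endpoints by linear interpolation between flanking doses. Not reached: highest tested concentration assigned. GI50 marks 50% less growth.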 The source made the active and inactive calls. Rule as the data show it: active = GI50 up to about 1.1 µM and inactive = higher.

Columns and labels:
Test in all cases: NCI-60 cell line screen, 48 h
BT-549 = tested on: BT-549
T47D = tested on: T47D
MDA-MB-231 = tested on: MDA-MB-231
SNB-78 = tested on: SNB-78
DMS-273 = tested on: DMS-273
DMS-114 = tested on: DMS-114
LXFL 529 = tested on: LXFL 529
XF498 = tested on: XF498

| SMILES | GI50 (BT-549) | GI50 (T47D) | GI50 (MDA-MB-231) | GI50 (SNB-78) | GI50 (DMS-273) | GI50 (DMS-114) | GI50 (LXFL 529) | GI50 (XF498) |
| --- | --- | --- | --- | --- | --- | --- | --- | --- |
| CCOc1cc(CCNC)c2c(ccc3ccc(OC)c(O)c32)c1OC | 16.3 µM (inactive) | 21.7 µM (inactive) | 13.4 µM (inactive) |  |  |  |  |  |
| COc1cc(Br)c(CC2C3=C(CCN2C(=O)C2CCC2)CC2(CC3)OCCO2)cc1O (configuration not stated) |  | 29.9 µM (inactive) | 87.1 µM (inactive) |  |  |  |  |  |
| CCO/C(=N/S(=O)(=O)C(F)(F)F)N(C(C)C)C(C)C | > 100 µM (inactive) | > 100 µM (inactive) | > 100 µM (inactive) |  |  |  |  |  |
| CSc1nc(SC)c2c(C)cn(C3OC(C)C(O)C(O)C3O)c2n1 (configuration not stated) | 39.2 µM (inactive) | 34.1 µM (inactive) | 52.7 µM (inactive) |  |  |  |  |  |
| CN(C)c1nc2oc(-c3ccccc3)c(-c3ccccc3)c2c2nnnn12 |  | > 100 µM (inactive) | > 100 µM (inactive) |  |  |  |  |  |
| C=C1C2CCCC1C1(S(C)(=O)=O)CCCCC21O (configuration not stated) |  |  |  | > 100 µM (inactive) | > 100 µM (inactive) | > 100 µM (inactive) | > 100 µM (inactive) |  |
| O=C(/C=C/c1cccs1)c1cccc(C(=O)/C=C/c2cccs2)n1 | 42.8 µM (inactive) | 19.4 µM (inactive) | 63.2 µM (inactive) |  |  |  |  |  |
| O=c1[nH]ccc(CNC23CC4CC(CC(C4)C2)C3)c1O |  |  |  | > 100 µM (inactive) | > 100 µM (inactive) |  | > 100 µM (inactive) | > 100 µM (inactive) |
| Cc1n[nH]c(C(F)(F)F)c1/N=N/N1CCOCC1 | 12.4 µM (inactive) | 3.27 µM (inactive) | 12.8 µM (inactive) |  |  |  |  |  |
| CCN(CC)CCNc1ccc2nnn3c4ccc(O)cc4c(=O)c1c23 | 12.7 µM (inactive) | 18.5 µM (inactive) | 0.0361 µM (active) | 5.89 µM (inactive) |  | 7.29 µM (inactive) | 6.58 µM (inactive) |  |
| C=C(Cl)C(Cl)(CBr)CCC(Br)C(C)(C)Cl (configuration not stated) | 2.05 µM (inactive) and 1.04 µM (active) and 1.79 µM (inactive) | 3.37 µM (inactive) and 416 nM (active) and 973 nM (active) | 8.36 µM (inactive) and 1.22 µM (inactive) and 1.95 µM (inactive) |  |  |  |  |  |
| CCOC(=O)NN(C(=O)OCC)c1ccc(/N=N/c2ccc(OC)cc2)n1C |  | 21 µM (inactive) | 19.8 µM (inactive) |  |  |  |  |  |
| O=C(NCCc1n[nH]c2c1C(=O)C=C(Nc1ccccc1)C2=O)OCc1ccccc1 | > 100 µM (inactive) | 53.8 µM (inactive) | > 100 µM (inactive) |  |  |  |  |  |
| Clc1cc(OCC23CC4CC(CC(C4)C2)C3)nc(OCC23CC4CC(CC(C4)C2)C3)n1 | > 100 µM (inactive) | > 100 µM (inactive) | > 100 µM (inactive) |  |  |  |  |  |
| COC(=O)C1=C(C(=O)OC)N(c2ccncc2)C(c2ccco2)=CC1c1ccccc1[N+](=O)[O-] (configuration not stated) | 6.7 µM (inactive) | 3.78 µM (inactive) | 11.6 µM (inactive) |  |  |  |  |  |
| CCCCCC[C@H]([C@H](C)O)n1cnc2c(N)ncnc21 |  | > 100 µM (inactive) | > 100 µM (inactive) |  |  |  |  |  |
| COC(=O)[C@@]1(NC(=O)C(CC(=O)OC(C)(C)C)NC(=O)OC(C)(C)C)C[C@H]1C (some centres not stated) | > 100 µM (inactive) | > 100 µM (inactive) | > 100 µM (inactive) |  |  |  |  |  |
| O=C(O)/C(Cl)=C(\Cl)C(=O)Nc1ccc(Cl)c(Cl)c1Cl |  |  |  | 28.4 µM (inactive) | 21 µM (inactive) | 20.8 µM (inactive) | 20.1 µM (inactive) |  |
| COc1ccc(-c2oc3cc(OC)c(OC)c(O)c3c(=O)c2OC)cc1 | 18 µM (inactive) | 28.4 µM (inactive) | 17 µM (inactive) |  |  |  |  |  |
| CCN(CC)c1c(C(=O)/C=C/c2ccccc2)c(-c2ccccc2)nn(C)c1=O |  |  |  |  | 4.98 µM (inactive) | 5.32 µM (inactive) | 5.01 µM (inactive) | 11.2 µM (inactive) |
| Cc1cc(C(O)CNC(C)CCn2cnc3c2c(=O)n(C)c(=O)n3C)ccc1O (configuration not stated) | > 100 µM (inactive) | > 100 µM (inactive) | > 100 µM (inactive) |  |  |  |  |  |
| CC(N)C(=O)OCN1C(=O)C2C3C=CC(C2C1=O)C1C2C(=O)N(COC(=O)C(C)N)C(=O)C2C31 (configuration not stated) |  |  |  | 57 µM (inactive) | 18.5 µM (inactive) | 17 µM (inactive) | 26.4 µM (inactive) | 19 µM (inactive) |
| COC(=O)c1ccc(C)cc1C1CN=NC12Cc1cccc(C)c1C2=O (configuration not stated) | 25.6 µM (inactive) | 24.9 µM (inactive) | > 100 µM (inactive) |  |  |  |  |  |
| COc1cc(Br)c(/C=N\c2cccc3ccc(OS(=O)(=O)c4cccc([N+](=O)[O-])c4)cc23)cc1OC |  |  |  | 12 µM (inactive) |  | 14.7 µM (inactive) | 14.3 µM (inactive) |  |
| CC(C)(Oc1ccc(C(=O)c2ccc(Cl)cc2)cc1Cl)C(=O)N1CCN(c2ccccc2)CC1 |  |  |  | > 100 µM (inactive) | 55.7 µM (inactive) | 45.7 µM (inactive) | > 100 µM (inactive) | 52.1 µM (inactive) |
| O=C(O)Cc1ccc(-n2nnc3c(=O)[nH][nH]c(=O)c32)cc1 | > 100 µM (inactive) |  | > 100 µM (inactive) |  |  |  |  |  |
| COC(=O)/N=C(\NC(=O)OC)Nc1ccc(Oc2ccccc2)cc1NC=O |  |  |  |  |  | 0.253 µM (active) | 0.667 µM (active) | 0.369 µM (active) |
